The subject of test [1] is murine pre-OC cell line RAW 264.7. The test can be described thus: In vitro osteoclastogenesis, mouse cells (RAW 264.7). It is filed as cell-based. From the text:
In vitro osteoclastogenesis of murine pre-OC cell line RAW 264.7 in the presence of different doses of BK2.

The next test deals with DBA/1 mice with CIA. As to the kind of experiment: Collagen-induced arthritis (CIA) in DBA/1 mice. In kind it is in vivo, mouse. As to the method: A. DBA/1 mice with CIA received weekly ip doses of BK2, 446 pg/gm, or PBS (black) starting on day −1 relative to day of CIA induction, and joint swelling was recorded. N=10 per group. B. DBA/1 mice with CIA received a total of 4 weekly ip doses of BK2, 446 pg/gm, or PBS (black) starting at day 20 relative to day of CIA induction, at the time of arthritis onset, and joint swelling was recorded. Arrows indicate the treatment days. N=10 per group. C. DBA/1 mice with CIA received weekly sq doses of BK2446 pg/gm, or PBS (black) starting at day −1 relative to day of CIA induction, and joint swelling was recorded. N=10 per group. […] E. DBA/1 mice with CIA received a total of 4 weekly sq doses of BK2, 446 pg/gm, or PBS (black) starting at day 20 relative to day of CIA induction, at the time of arthritis onset, and joint swelling was recorded. Arrows indicate the treatment days. N=10 per group.

The subject of another test is SE-activated signaling. As to the kind of experiment: Inhibition of SE-activated signaling in vitro. It is filed as cell-based. As to conditions: read-out: IC50, inhibitor of SE-activated signaling.
For another test, the system named is human cells. As to the kind of experiment: In vitro osteoclastogenesis, human cells. In kind it is cell-based.

Numbered stars: 1 amine (or outer) side, 2 acyl side, 3 side chain; on linkers, the order of the positions; unused ones are H or OH. Bridge positions count the residues as written; N and C are the ends. Square brackets hold non-standard residues; d marks the D form. Peptide text beside a SMILES is read from it. CO = O=C([*:1])[*:2]; Nlys = NCCCCNCC(=O)O

The term IC50 denotes the concentration needed to halve the response being measured.

In the case of `C[C@H](NC(=O)CN1CCCCNC(=O)NCCCCN(C(=O)[C@@H](N)Cc2c[nH]c3ccccc23)CC(=O)N[C@@H](CC(=O)O)C(=O)N[C@@H](CCCCN)C(=O)N[C@@H](CO)C1=O)C(N)=O` [BK2, Trp-c[Gly(4-aminobutyl)-Asp-Lys-Ser-Gly(4-aminobutyl)]-Ala-NH2] (H-W[Nlys]DKS[Nlys]A-NH2; linker 2-6 via CO), the “IC50 of anti-osteoclastogenic effect in vitro” value (in test [1]; in the test with human cells) was “pM-range” throughout. Also, the “Inhibition of bone destruction in vivo” value with DBA/1 mice with CIA (CIA mice) is “inhibition effect”. Moreover, the “Inhibition of osteoclastogenesis in vivo” value in the test with DBA/1 mice with CIA (CIA mice) is listed as “inhibition effect”. Also, in the test on DBA/1 mice with CIA (DBA/1 mice, weekly ip or sq 446 pg/gm, from day -1 or day 20), the “Inhibition effect on CIA (joint swelling)” value was “highly potent (picogram-range doses) inhibition effect”. In addition, the “Radiological scores (bone destruction)” value with DBA/1 mice with CIA (FIG. 3D: weekly sq 446 pg/gm starting day -1) and in the test with DBA/1 mice with CIA (FIG. 3F: 4 weekly sq doses 446 pg/gm starting day 20 (arthritis onset)) was “protective effect on bone destruction” in each case. Besides, in the test with SE-activated signaling, the half-inhibitory concentration (IC50) was about 10 mM.

These data come from patent publication US10494405B2, “Methods and compositions for the treatment of arthritis” (THE REGENTS OF THE UNIVERSITY OF MICHIGAN, priority 2015, dated 2019).
